The source of these data is patent US20210220355A1, “ANTITUMOR AGENT FOR ACUTE MYELOID LEUKEMIA” (FUJIFILM Corporation, priority 2018, published 2021).

pIC50: −log10 of the molar value.

In series [1] the test system is patients with acute myeloid leukemia. Briefly: clinical test, repeated QD administration to patients with acute myeloid leukemia (side effects). The series is classed as in vivo, human. The note with it: AML patients, 10 mg or 20 mg one time a day.
The subject of the next series is FLT3 phosphorylation. Briefly: plasma inhibitory activity (PIA) test on patient plasma samples. Format: cell-based, human. As for the experimental part:
For 7 patients (patients 1 to 7) who were repeatedly administered with 10 mg of Compound A1 one time a day or 20 mg one time a day in a clinical test involving patients with acute myeloid leukemia, in-plasma concentrations of Compound A1 were measured before administration and after 4 hours after the administration on day 1, day 8, day 15, and day 22 of the first cycle (one cycle is 28 days) and on day 1 of the second cycle, and on the end day of the administration of Compound A1. In addition, a plasma inhibitory activity (PIA) test (Blood, 2006, Vol. 108, p 3477 to 3483) was carried out using plasma samples from the same patients at the same time points. A graph showing a correlation between the in-plasma concentrations and the PIA test results is shown FIG. 1. In FIG. 1, open circles, open rectangles, open triangles, filled circles, filled triangles, filled rectangles, and cross symbols indicate the results of patients 1 to 7, respectively.

The test system of another series is acute myeloid leukemia. In words: BID administration test in a patient with acute myeloid leukemia (bone marrow examination). The series is classed as in vivo, human. The note with it: one AML patient, 75 mg BID before a meal, day 29 of administration; 55% before administration. As for the experimental part:
A patient with acute myeloid leukemia is subjected to the BID administration of Compound A of 25 to 225 mg per administration before having a meal two times a day. A preferred effect (for example, a decrease in the proportion of blast cells in the bone marrow, or a curing effect equal to or higher than PR) is confirmed. The specific doses per administration are 50 mg, 75 mg, 100 mg, or 150 mg. Patients have received chemotherapy with cytarabine, daunorubicin, idarubicin, and the like as preliminary curing, and some patients have not reached CR, CRi, CRp, or PR by preliminary curing. The curing effect is determined by the following criteria. The bone marrow puncture sample is evaluated and determined according to the following criteria. Complete Response (CR): a state in which […], and the neutrophil count and the platelet count are respectively 1,000 counts/μL or more and 100,000 counts/μL or more. Complete Response with incomplete platelet recovery ([…]): a state in which myeloblasts are 5% or less and the neutrophil count is 1,000 counts/μL or more, but the platelet count is 100,000 counts/μL or less. Complete Response with incomplete hematological recovery (CRi): a state in which myeloblasts are 5% or less and there is no blood transfusion dependency, but the neutrophil count is 1,000 counts/μL or less. […]

In series [2] the test system is FLT3-ITD-expressing 32D cell. Briefly: inhibitory effect on proliferation of mutant FLT3-expressing 32D cell (intracellular ATP level). The series is classed as cell-based. The following applies: 72 h, Mutation type FLT3-ITD, day 3, ATP level, read-out: Effect determination (IC50 value class), proliferation. As for the experimental part:
(§1) 32D cell line expressing FLT3 gene mutations (FLT3-ITD+D698N, +N676T) found according to the random mutagenesis analysis method was cultured for a predetermined period of time (setting: 37° C. and 5% CO2, steam saturated), and then the cells were plated on a 384-well plate at a cell concentration of 299 cells/well. The random mutagenesis analysis method was carried out according to the following reference document.
(§2) Each of the test substances was dissolved in dimethyl sulfoxide (DMSO) to prepare a DMSO solution containing 20 mmol/L of the test substance. After serially diluting with DMSO and further diluting with a medium containing 10% serum, each of the test substance solutions having a concentration 10 times the final treatment concentration was prepared. […] In addition, a group (a positive control group) in which only DMSO containing no test substance was added to a well in which cells were plated and a group (a negative control group) in which only DMSO containing no test substance was added to a well in which only the medium was added were prepared. On day 3 after adding the test substance solution, the intracellular ATP level was measured with “Cell” ATP Assay reagent Ver. 2 (manufactured by TOYO B-Net Co., Ltd.) to evaluate cell viability.
(§3) The suppression rate was determined by assuming that the amount of luminescence signal in the negative control group corresponded to the suppression of cell viability by 100% and the amount of luminescence signal in the positive control group corresponded to the suppression of cell viability by 0%. […] 3 (manufactured by ITOCHU Techno-Solutions Corporation).

The test system of series [3] is FLT3-ITD+N676T-expressing 32D cell. The description is as above. The series is classed as cell-based. The note with it: for pIC50: 32D, 72 h, Mutation type FLT3-ITD + N676T, day 3, ATP level, read-out: Effect determination (IC50 value class), proliferation. As for the experimental part:
as §1, §2, §3

Series [4] deals with FLT3-ITD+D698N-expressing 32D cell. The series is described as above. Format: cell-based. The following applies: for pIC50: 32D, 72 h, Mutation type FLT3-ITD + D698N, day 3, ATP level, read-out: Effect determination (IC50 value class), proliferation. The procedure:
as §1, §2, §3

Regarding `CCCNc1nc(Nc2ccc(C#N)cc2)ncc1C#CCCCNC(=O)[C@H](C)N(C)C(=O)/C=C/CN(C)C` [Compound A1, (S,E)-N-(1-((5-(2-((4-cyanophenyl)amino)-4-(propylamino)pyrimidin-5-yl)-4-pentyn-1-yl)amino)-1-oxopropan-2-yl)-4-(dimethylamino)-N-methyl-2-butenamide], in series [1], the serious side effects result is “No serious side effects were observed”. The “in-plasma concentration at which the phosphorylation inhibition rate reaches 100%” value in the series on FLT3 phosphorylation (based on the regression line of FIG. 1, 7 AML patients given 10 mg or 20 mg one time a day) was “exceeds 30 ng/mL”. The “in-plasma concentration required to exhibit a remarkable FLT3 phosphorylation inhibition rate” value in the series on FLT3 phosphorylation (concluded from PIA test results of FIG. 1) is recorded as not below 40 ng/mL. In the series with acute myeloid leukemia, the “proportion of blast cells in the bone marrow” value was 18%. The pIC50 in series [2] was 9.30 to 10.00; in series [3] it was 9.00 to 9.30; in series [4] it was 9.00 to 9.30. Besides, the “inhibitory effect on proliferation, in words” value in series [3] (FLT3-ITD+N676T-expressing 32D cell) is reported as “strong inhibitory effect”; in series [4] (FLT3-ITD+D698N-expressing 32D cell, compared with FLT3-ITD-expressing 32D cell), “strong inhibitory effect”.
Turning to `CCc1nc(C(N)=O)c(Nc2ccc(N3CCC(N4CCN(C)CC4)CC3)c(OC)c2)nc1NC1CCOCC1` [Gilteritinib, 6-ethyl-3-[3-methoxy-4-[4-(4-methylpiperazin-1-yl)piperidin-1-yl]anilino]-5-(oxan-4-ylamino) pyrazine-2-carboxamide, reference compound], the pIC50 in series [2] was 8.30 to 9.00; in series [3], 8.00 to 8.30; in series [4], 7.30 to 8.00.
